Data as given in PubChem BioAssay (NCI).
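Test compounds were applied to cells in 96-well plates for 48 hours at 5 doses. TGI marks complete inhibition of growth.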

Tests used:
Assay in all cases: NCI-60 cell line screen, 48 h
HT29 colon = tested on: HT29 colon
HCT-15 colon = tested on: HCT-15 colon
OVCAR-3 ovarian = tested on: OVCAR-3 ovarian
SF-539 CNS = tested on: SF-539 CNS
HOP-18 NSCLC = tested on: HOP-18 NSCLC
DU-145 prostate = tested on: DU-145 prostate
SR leukemia = tested on: SR leukemia
RPMI-8226 leukemia = tested on: RPMI-8226 leukemia
OVCAR-4 ovarian = tested on: OVCAR-4 ovarian
ACHN renal = tested on: ACHN renal
M19-MEL melanoma = tested on: M19-MEL melanoma
786-0 renal = tested on: 786-0 renal
PC-3 prostate = tested on: PC-3 prostate
COLO 205 colon = tested on: COLO 205 colon
U251 CNS = tested on: U251 CNS
K-562 leukemia = tested on: K-562 leukemia
RXF 393 renal = tested on: RXF 393 renal
NCI-H460 lung = tested on: NCI-H460 lung
NCI-H522 lung = tested on: NCI-H522 lung
SW-620 colon = tested on: SW-620 colon
HOP-92 NSCLC = tested on: HOP-92 NSCLC
CCRF-CEM leukemia = tested on: CCRF-CEM leukemia
SNB-75 CNS = tested on: SNB-75 CNS
KM12 colon = tested on: KM12 colon
SNB-78 CNS = tested on: SNB-78 CNS
KM20L2 colon = tested on: KM20L2 colon
NCI-H226 lung = tested on: NCI-H226 lung
DLD-1 colon = tested on: DLD-1 colon
MOLT-4 leukemia = tested on: MOLT-4 leukemia
LOX IMVI melanoma = tested on: LOX IMVI melanoma
SK-MEL-2 melanoma = tested on: SK-MEL-2 melanoma
SK-OV-3 ovarian = tested on: SK-OV-3 ovarian
M14 melanoma = tested on: M14 melanoma
SNB-19 CNS = tested on: SNB-19 CNS
UO-31 renal = tested on: UO-31 renal
SF-268 CNS = tested on: SF-268 CNS
LXFL 529 NSCLC = tested on: LXFL 529 NSCLC
HL-60(TB) leukemia = tested on: HL-60(TB) leukemia
CAKI-1 renal = tested on: CAKI-1 renal
SK-MEL-28 melanoma = tested on: SK-MEL-28 melanoma
HOP-62 NSCLC = tested on: HOP-62 NSCLC
MALME-3M melanoma = tested on: MALME-3M melanoma
UACC-62 melanoma = tested on: UACC-62 melanoma
A549 NSCLC = tested on: A549 NSCLC
TK-10 renal = tested on: TK-10 renal
SF-295 CNS = tested on: SF-295 CNS
RXF-631 renal = tested on: RXF-631 renal
MCF7 breast = tested on: MCF7 breast
NCI/ADR-RES ovarian = tested on: NCI/ADR-RES ovarian
A498 renal = tested on: A498 renal
IGROV1 ovarian = tested on: IGROV1 ovarian
DMS 114 small cell lung = tested on: DMS 114 small cell lung
HCC-2998 colon = tested on: HCC-2998 colon
HCT-116 colon = tested on: HCT-116 colon
HS 578T breast = tested on: HS 578T breast
UACC-257 melanoma = tested on: UACC-257 melanoma
SN12C renal = tested on: SN12C renal
MDA-MB-435 = tested on: MDA-MB-435
OVCAR-8 ovarian = tested on: OVCAR-8 ovarian
SK-MEL-5 melanoma = tested on: SK-MEL-5 melanoma
XF 498 CNS = tested on: XF 498 CNS
EKVX NSCLC = tested on: EKVX NSCLC
OVCAR-5 ovarian = tested on: OVCAR-5 ovarian
MDA-MB-231 breast = tested on: MDA-MB-231 breast
BT-549 breast = tested on: BT-549 breast
MDA-N = tested on: MDA-N
NCI-H23 lung = tested on: NCI-H23 lung
DMS 273 small cell lung = tested on: DMS 273 small cell lung

In the case of `CC(C)=C1CCC(CN2CCOCC2)C1=O` (stereo not drawn), the TGI (HT29 colon) is reported as 20.4 µM, the TGI (HCT-15 colon) is reported as 22 µM and the TGI (OVCAR-3 ovarian) is reported as 18.4 µM. The TGI (SF-539 CNS) was 31.9 µM, the TGI (HOP-18 NSCLC) was 23.8 µM and the TGI (DU-145 prostate) was 30.4 µM. The TGI (SR leukemia) was 11.2 µM, the TGI (RPMI-8226 leukemia) was 12.5 µM and the TGI (OVCAR-4 ovarian) was 15.6 µM. The TGI (ACHN renal) was 23 µM, the TGI (M19-MEL melanoma) was over 58.9 µM and the TGI (786-0 renal) was 11.2 µM. It also gave a TGI (PC-3 prostate) of 34.1 µM, a TGI (COLO 205 colon) of 16.9 µM and a TGI (U251 CNS) of 48.9 µM. It also gave a TGI (K-562 leukemia) of 6.33 µM, a TGI (RXF 393 renal) of 5.47 µM and a TGI (NCI-H460 lung) of 59 µM. For the same molecule, the TGI (NCI-H522 lung) was 0.163 µM, the TGI (SW-620 colon) was 4.26 µM and the TGI (HOP-92 NSCLC) was 8.81 µM. For the same molecule, the TGI (CCRF-CEM leukemia) was 7.9 µM, the TGI (SNB-75 CNS) was 18 µM and the TGI (KM12 colon) was over 51.4 µM. The TGI (SNB-78 CNS) was 30.3 µM, the TGI (KM20L2 colon) was 31.4 µM and the TGI (NCI-H226 lung) was 46.1 µM. It also gave a TGI (DLD-1 colon) of 10.8 µM, a TGI (MOLT-4 leukemia) of 5.54 µM and a TGI (LOX IMVI melanoma) of 41.9 µM. For the same molecule, the TGI (SK-MEL-2 melanoma) was 36.6 µM, the TGI (SK-OV-3 ovarian) was over 100 µM and the TGI (M14 melanoma) was 14.6 µM. For the same molecule, the TGI (SNB-19 CNS) was over 91.9 µM, the TGI (UO-31 renal) was 32.6 µM and the TGI (SF-268 CNS) was 45 µM. It also gave a TGI (LXFL 529 NSCLC) of 6.25 µM, a TGI (HL-60(TB) leukemia) of 14 µM and a TGI (CAKI-1 renal) of 0.908 µM. It also gave a TGI (SK-MEL-28 melanoma) of 29.1 µM, a TGI (HOP-62 NSCLC) of over 93.5 µM and a TGI (MALME-3M melanoma) of 7 µM. It also gave a TGI (UACC-62 melanoma) of 33 µM, a TGI (A549 NSCLC) of 43.1 µM and a TGI (TK-10 renal) of 19 µM. For the same molecule, the TGI (SF-295 CNS) was over 100 µM, the TGI (RXF-631 renal) was over 31 µM and the TGI (MCF7 breast) was 22.5 µM. It also gave a TGI (NCI/ADR-RES ovarian) of 40.8 µM, a TGI (A498 renal) of 52.3 µM and a TGI (IGROV1 ovarian) of 39.2 µM. It also gave a TGI (DMS 114 small cell lung) of 25 µM, a TGI (HCC-2998 colon) of 29.3 µM and a TGI (HCT-116 colon) of 15.8 µM. The TGI (HS 578T breast) was over 100 µM, the TGI (UACC-257 melanoma) was 32.5 µM and the TGI (SN12C renal) was 16.7 µM. It also gave a TGI (MDA-MB-435) of 29.4 µM, a TGI (OVCAR-8 ovarian) of 27.8 µM and a TGI (SK-MEL-5 melanoma) of 30.7 µM. It also gave a TGI (XF 498 CNS) of 26.4 µM, a TGI (EKVX NSCLC) of 34.5 µM and a TGI (OVCAR-5 ovarian) of 32.5 µM. For the same molecule, the TGI (MDA-MB-231 breast) was 31.5 µM, the TGI (BT-549 breast) was 31.8 µM and the TGI (MDA-N) was 35.1 µM. It also gave a TGI (NCI-H23 lung) of 36.7 µM.

`O=C(NCc1ccc2ccc3cccnc3c2n1)c1ccc[n+](Cc2ccccc2)c1` was tested, and the TGI (HT29 colon) was over 100 µM, the TGI (HCT-15 colon) was over 100 µM and the TGI (OVCAR-3 ovarian) was over 100 µM. The TGI (SF-539 CNS) was over 100 µM, the TGI (HOP-18 NSCLC) was over 100 µM and the TGI (SR leukemia) was over 100 µM. For the same molecule, the TGI (RPMI-8226 leukemia) was over 100 µM, the TGI (OVCAR-4 ovarian) was over 100 µM and the TGI (ACHN renal) was over 100 µM. For the same molecule, the TGI (M19-MEL melanoma) was over 100 µM, the TGI (786-0 renal) was over 100 µM and the TGI (COLO 205 colon) was over 100 µM. It also gave a TGI (U251 CNS) of over 100 µM, a TGI (K-562 leukemia) of over 100 µM and a TGI (RXF 393 renal) of over 100 µM. It also gave a TGI (NCI-H460 lung) of over 100 µM, a TGI (NCI-H522 lung) of over 100 µM and a TGI (SW-620 colon) of over 100 µM. For the same molecule, the TGI (HOP-92 NSCLC) was over 100 µM, the TGI (CCRF-CEM leukemia) was over 100 µM and the TGI (SNB-75 CNS) was over 100 µM. It also gave a TGI (KM12 colon) of over 100 µM, a TGI (KM20L2 colon) of over 100 µM and a TGI (NCI-H226 lung) of over 100 µM. The TGI (DLD-1 colon) was over 100 µM, the TGI (MOLT-4 leukemia) was over 100 µM and the TGI (LOX IMVI melanoma) was over 100 µM. The TGI (SK-MEL-2 melanoma) was over 100 µM, the TGI (SK-OV-3 ovarian) was over 100 µM and the TGI (M14 melanoma) was over 100 µM. For the same molecule, the TGI (SNB-19 CNS) was over 100 µM, the TGI (UO-31 renal) was over 100 µM and the TGI (SF-268 CNS) was over 100 µM. It also gave a TGI (LXFL 529 NSCLC) of over 100 µM, a TGI (HL-60(TB) leukemia) of over 100 µM and a TGI (SK-MEL-28 melanoma) of over 100 µM. It also gave a TGI (DMS 273 small cell lung) of over 100 µM, a TGI (HOP-62 NSCLC) of over 100 µM and a TGI (MALME-3M melanoma) of over 100 µM. It also gave a TGI (UACC-62 melanoma) of over 100 µM, a TGI (A549 NSCLC) of over 100 µM and a TGI (TK-10 renal) of over 100 µM. For the same molecule, the TGI (SF-295 CNS) was over 100 µM, the TGI (RXF-631 renal) was over 100 µM and the TGI (IGROV1 ovarian) was over 100 µM. For the same molecule, the TGI (DMS 114 small cell lung) was over 100 µM, the TGI (HCC-2998 colon) was over 100 µM and the TGI (HCT-116 colon) was over 100 µM. It also gave a TGI (UACC-257 melanoma) of over 100 µM, a TGI (SN12C renal) of over 100 µM and a TGI (OVCAR-8 ovarian) of over 100 µM. The TGI (SK-MEL-5 melanoma) was over 100 µM, the TGI (XF 498 CNS) was over 100 µM and the TGI (EKVX NSCLC) was over 100 µM. For the same molecule, the TGI (OVCAR-5 ovarian) was over 100 µM and the TGI (NCI-H23 lung) was over 100 µM.
